Test results taken from patent US20070014736A1, “Methods of delivering corticotroph-derived glycoprotein hormone” (priority 2005, published 2007).

How the values were obtained:
[1] = test system: Delayed Type Hypersensitivity (DTH) reaction; assay: Delayed Type Hypersensitivity (DTH), change in ear thickness; type: in vivo, mice
[2] = test system: LPS-induced mild endotoxemia mouse model; assay: LPS-induced mild endotoxemia mouse model, serum cytokines; type: in vivo, mice
Description: An in vivo experiment was designed to examine the effect of CGH in a mouse model of LPS-induced mild endotoxemia. This model mimics acute endotoxemia/sepsis by challenging mice with a low, non-lethal dose of bacterial endotoxin (lipopolysaccharide, LPS). Serum is collected at various timepoints (1-8 hours) after intraperitoneal LPS injection and analyzed for altered expression of a wide variety of pro- and anti-inflammatory cytokines and acute phase proteins that mediate the inflammatory response. The model provides a means to assess the potential anti-inflammatory effects of therapeutic candidates during a robust inflammatory response. To initially assess the model, we measured proinflammatory cytokines in a pilot experiment to collect reference data for the model.
C57B1/6 mice (Charles River Laboratories; 5 mice/group) were treated i.p. with PBS, 0.2 mg/kg CGH in PBS, or 2 mg/kg CGH in PBS 1 hour prior to LPS challenge. The mice were then challenged with 25 ug of LPS i.p. and bled at 1 hour and 4 hours after LPS injection. Serum was analyzed for TNF[…] (1 hour) and IL-6 (4 hours) levels by ELISA.
To determine if CGH would potentiate the effect of a sub-maximal dose of glucocorticoid, groups of 10 C57B1/6 mice each were treated i.p. with PBS, 0.15 or 1.5 mg/kg Dex, 2 mg/kg CGH, or a combination of CGH and low or high doses of Dex, 1 hour prior to injection of 25 ug LPS i.p. As shown in TABLE 3 (Expt #2), either 2 mg/kg CGH or 1.5 mg/kg Dex treatment alone (1 hour prior to LPS) caused a significant drop in serum TNFα levels at 1 hour, as observed in previous experiments. The effects of CGH administered in conjunction with Dex on inhibition of TNFα production were greater than either dose of Dex alone.

[3] = test system: neutrophil infiltration in the ears; assay: Neutrophil (Gr-1) histomorphometry of ears in DTH experiment #1; type: in vivo, mice; conditions: 1.5 mg/kg Dex i.p. at challenge (day 7)
Description: Ears from mice in DTH experiment #1 were analyzed by immunohistochemistry to assess which cell types were most affected by CGH treatment. Ears were fixed in Zinc/Tris buffer (2.3 mM calcium acetate/31.6 mM zinc acetate/36.7 mM zinc chloride in 0.1M Tris-HCL buffer, pH 7.4) for 24 hours at room temperature and stained with antibodies specific for CD4, CD8, CD11c, and Gr-1 (neutrophils). […] Ears were stained using a TechMate 500 autoimmunostainer (Biotech/Ventana) MIP protocol with some modifications. […] This step was followed, after a wash, by biotinylated rabbit anti-rat IgG secondary antibody (Dako, used at 10 ug/ml in PBS with 2% normal rabbit serum and 2% nonfat dry milk) for 45 min. The sections were then washed and treated with HP Block (1.5% H2O2 in 50% methanol) 3 times, 7 min each, followed by 25 min in avidin-biotin complex, 3 times of 4 min each in DAB (Diaminobenzidine), then with Methyl green for 10 min.
From this staining procedure, there was a clear reduction in the number of neutrophils infiltrating the ears of those mice treated with CGH or Dex, compared to the PBS-treated controls. Histomorphometry was performed to obtain the average pixel density of neutrophils per unit length (1 mm) present in the ear samples. Despite a fair amount of variability among each group, there was a significant reduction in neutrophil staining in the Dex and low dose CGH groups, as well as a nearly significant (p=0.0507) reduction in the high dose CGH group (see TABLE 5, p values).

[4] = test system: adrenal glands; assay: Intraperitoneal recombinant CGH for two weeks, adrenal weight; type: in vivo, mice; conditions: 0.5 mg/kg Dex i.p. daily, day 15
From the text: Summary: Mice were exposed to CGH through infection with adenovirus particles expressing GPHA2 and GPHB5, leading to overexpression and secretion of CGH from the liver of these animals. […] The hypertrophy was apparent in the inner cortical layers, the zona fasciculata and the zona reticularis. Similarly, mice were exposed to CGH through intraperitoneal injection of recombinant CGH protein alone, recombinant CGH protein along with the glucocorticoid Dexamethasone (Dex), Dex alone, or PBS alone daily for two weeks.
Sixteen C57BL/6 female mice at 8 weeks of age were separated into four groups. The first group received daily injections of 0.25 mg/kg of recombinant CGH protein intraperitoneally. The second group received daily injections of PBS using the same procedure. The third group received daily injections of 0.25 mg/kg of CGH plus 0.05 mg/kg Dex and the final group received 0.5 mg/kg Dex, alone. Animals were sacrificed on day 15 and the adrenal glands were isolated and weighed. Example 5 describes the expression and purification of recombinant CGH protein used in this experiment.

[5] = test system: human primary adipocytes; assay: CRE-luciferase reporter assay in human primary adipocytes; type: cell-based
From the text: (§1) Differentiated murine 3T3 L1 adipocytes and primary human adipocytes were used to study signal transduction of CGH. 3T3 L1 fibroblasts were differentiated into adipocytes and the cells were transduced with recombinant adenovirus containing a reporter construct, a firefly luciferase gene under the control of cAMP response element (CRE) enhancer sequences. This assay system detects cAMP-mediated gene induction downstream of activation of Gs-coupled G-protein coupled receptors (GPCR's). […] In a separate experiment, undifferentiated 3T3 L1 fibroblasts were transduced with the recombinant adenovirus. […] In another experiment, human primary adipocytes were also transduced with the recombinant adenovirus containing a reporter construct. Treatment of the human adipocytes with isoproterenol produced a 17-fold induction of luciferase expression.
(§2) Cells were cultured at 37° C. in an 8% CO2 humidified incubator. Cells were seeded to collagen-coated 96-well plates (Becton Dickinson, cat. #356407) at a density of 5,000 cells per well. […] Luciferase activity was measured on a microplate luminometer (PerkinElmer Life Sciences, Inc., model LB 96V2R) following automated injection of 40 μl of luciferase assay substrate into each well. […]

[6] = test system: differentiated 3T3 L1 adipocytes; assay: CRE-luciferase reporter assay in differentiated 3T3 L1 adipocytes; type: cell-based, murine
From the text: as §1, §2

[7] = molecular target: T1, thyroid-stimulating hormone receptor (TSHR) expressed on BHK cells (BHK-TSHR cells) (UniProt P16473 21-764, limits assumed); assay: radioligand saturation binding to BHK-TSHR cells, two-site non-linear regression, high-affinity site
T1 construct: whole, on cells; also called TSH receptor
Description: (§3) Binding reactions were terminated by removing the binding medium and the cell monolayers were washed three times with 1.0-2.0 ml of ice-cold PBS containing 1.0 mg/ml BSA and twice with 1.0-2.0 ml of ice cold albumin-free PBS. Cells were solubilized in 1.0 ml of 1.0N NaOH for 10 min at room temperature and cell-associated radioactivity was determined in a gamma counter. The measured radioactivity was normalized to cell number that was determined on plates of cells cultured in parallel. Binding data were analyzed by non-linear regression using Prizm 3.0 (GraphPad Software, San Diego, Calif.).

[8] = molecular target: T1, thyroid-stimulating hormone receptor …; assay: radioligand saturation binding to BHK-TSHR cells, two-site non-linear regression, low-affinity site
Description: as §3

[9] = test system: TSHR; assay: Binding of 125I-CGH and 125I-TSH to BHK cells expressing the TSHR; set-up: species or system murine or human
Description: as §3, with “BHK cells expressing murine or human TSHRs were cultured in Dulbecco's Modified Eagle's Medium [DMEM (high glucose)] containing 5% fetal bovine serum, 1% Glutamax, 1% sodium pyruvate, 250 nM methotrexate, and Geneticin ( 1/100). […] Plates of cells were placed on ice and washed twice with 1.0-2.0 ml of ice-cold PBS. […] Specific binding was determined in the presence (nonspecific binding) and absence (total binding) of unlabeled rhCGH (25.0 μg/ml) or TSH (10 μg/ml). Binding reactions” for “Binding reactions”

[10] = molecular target: T2, human TSHR (Homo sapiens, UniProt P16473); assay: Bioactivity in BHK cells with CRE-luciferase reporter and human TSHR; type: cell-based; conditions: CRE-luciferase reporter
T2 construct: expressed in transfected cells; host or cells: BHK cells

[11] = test system: parental BHK cells lacking the TSHR; assay: Binding of radioligands to parental BHK cells; conditions: data not shown
Description: as §3, with “BHK cells expressing murine or human TSHRs were cultured in Dulbecco's Modified Eagle's Medium [DMEM (high glucose)] containing 5% fetal bovine serum, 1% Glutamax, 1% sodium pyruvate, 250 nM methotrexate, and Geneticin ( 1/100). […] Plates of cells were placed on ice and washed twice with 1.0-2.0 ml of ice-cold PBS. […] Specific binding was determined in the presence (nonspecific binding) and absence (total binding) of unlabeled rhCGH (25.0 μg/ml) or TSH (10 μg/ml). Binding reactions” for “Binding reactions”

[12] = Expt 1, 1.5 mg/kg Dex i.p. at challenge (d7), 24 h
[13] = Expt 2, 1.5 mg/kg Dex i.p. at challenge (d7)
[14] = Expt 3, 1.5 mg/kg Dex i.p. at sensitization (d0-4)

## C[C@@H]1C[C@H]2[C@@H]3CCC4=CC(=O)C=C[C@]4(C)[C@@]3(F)[C@@H](O)C[C@]2(C)[C@@]1(O)C(=O)CO [Dex, Dexamethasone, reference compound]
[1]; [12]
  Change in ear thickness, left ear (PBS): 0.42 +/− 0.52 ×10^−3 inch
  Change in ear thickness, right ear (OVA): 2.62 +/− 1.18 ×10^−3 inch
[1]; [13]
  Change in ear thickness, left ear (PBS): 0.23 +/− 0.77 ×10^−3 inch
  Change in ear thickness, right ear (OVA): 2.89 +/− 1.29 ×10^−3 inch
[1]; [14]
  Change in ear thickness, left ear (PBS): 0.50 +/− 0.54 ×10^−3 inch
  Change in ear thickness, right ear (OVA): 4.38 +/− 1.34 ×10^−3 inch
[2]; Expt 2, 0.15 mg/kg Dex
  IL-6, 4 hours: 37.1 ± 8.8 ng/mL
  TNFα, 1 hour: 1765 ± 589 pg/mL
[2]; Expt 2, 1.5 mg/kg Dex
  IL-6, 4 hours: 16.0 ± 4.9 ng/mL
  TNFα, 1 hour: 264 ± 138 pg/mL
[3]
  Pixel density: Neutrophils, left ear (PBS): 749 +/− 686
  Pixel density: Neutrophils, right ear (OVA): 3651 +/− 2779
[4]
  Average adrenal weight/100 g body weight: 13.12 +/− 0.88

## CC(C)NCC(O)c1ccc(O)c(O)c1 (centres unmarked) [isoproterenol, reference compound]
[5]
  induction of luciferase expression / reporter gene: 17 fold
[6]
  induction of luciferase expression: 80 fold

B1: recombinant human Corticotroph-derived Glycoprotein Hormone (rhCGH), heterodimer of GPHA2 and GPHB5 (ligand)
chain 1: QEAVIPGCHLHPFNVTVRSDRQGTCQGSHVAQACVGHCESSAFPSRYSVLVASGYRHNITSVSQCCTISGLKKVKVQLQCVGSRREELEIFTARACQCDMCRLSRY
chain 2: ASSGNLRTFVGCAVREFTFLAKKPGCRGLRITTDACWGRCETWEKPILEPPYIEAHHRVCTYNETKQVTVKLPNCAPGVDPFYTYPVAIRCDCGACSTATTECETI
notes: correct NH2 termini reported; also called Thyrostimulin
[7]
  Kd: 0.00119 µM
[8]
  Kd: 2700 µM

B2: ^125I-CGH: rhCGH radiolabeled with 125I-Bolton Hunter Reagent (protein)
chain 1: B1 chain 1
chain 2: B1 chain 2
[9]
  high affinity sites per cell: 86,000 sites per cell
[9]; specific-binding data
  Hill slope: 1.08
[9]; two-site model
  Bmax, high-affinity site: 139±74 fmol/10^6 cells
  Bmax, low-affinity site: 1.6±1.4×10^6 fmol/10^6 cells
[10]
  bioactivity compared to unlabeled counterpart: no significant differences
[11]
  binding to parental BHK cells lacking the TSHR: Little or no binding
